Assay results taken from publication PMC11478076, “Synthetic Routes to 2-aryl-1H-pyrrolo[2,3-b]pyridin-4-amines: Cross-Coupling and Challenges in SEM-Deprotection” (Molecules, 2024).
Values joined by “and” are separate entries in the source; they are usually repeats but may differ in a detail not shown here. Identical values can stand only once. Like-named read-outs stand apart in the source and are kept apart here. Values belong to the molecule of their own block, whether it stands above or below them.

Assays:
CSF1R [1] = biological target: T1, CSF1R (Homo sapiens, UniProt P07333); assay: CSF1R enzymatic inhibitory assay, Z'-LYTE (Invitrogen/ThermoFisher); assay type: biochemical; details: ATP level equal to KM 10 μM, two titration curves (20 data points)
T1 sequence (P07333 20-972): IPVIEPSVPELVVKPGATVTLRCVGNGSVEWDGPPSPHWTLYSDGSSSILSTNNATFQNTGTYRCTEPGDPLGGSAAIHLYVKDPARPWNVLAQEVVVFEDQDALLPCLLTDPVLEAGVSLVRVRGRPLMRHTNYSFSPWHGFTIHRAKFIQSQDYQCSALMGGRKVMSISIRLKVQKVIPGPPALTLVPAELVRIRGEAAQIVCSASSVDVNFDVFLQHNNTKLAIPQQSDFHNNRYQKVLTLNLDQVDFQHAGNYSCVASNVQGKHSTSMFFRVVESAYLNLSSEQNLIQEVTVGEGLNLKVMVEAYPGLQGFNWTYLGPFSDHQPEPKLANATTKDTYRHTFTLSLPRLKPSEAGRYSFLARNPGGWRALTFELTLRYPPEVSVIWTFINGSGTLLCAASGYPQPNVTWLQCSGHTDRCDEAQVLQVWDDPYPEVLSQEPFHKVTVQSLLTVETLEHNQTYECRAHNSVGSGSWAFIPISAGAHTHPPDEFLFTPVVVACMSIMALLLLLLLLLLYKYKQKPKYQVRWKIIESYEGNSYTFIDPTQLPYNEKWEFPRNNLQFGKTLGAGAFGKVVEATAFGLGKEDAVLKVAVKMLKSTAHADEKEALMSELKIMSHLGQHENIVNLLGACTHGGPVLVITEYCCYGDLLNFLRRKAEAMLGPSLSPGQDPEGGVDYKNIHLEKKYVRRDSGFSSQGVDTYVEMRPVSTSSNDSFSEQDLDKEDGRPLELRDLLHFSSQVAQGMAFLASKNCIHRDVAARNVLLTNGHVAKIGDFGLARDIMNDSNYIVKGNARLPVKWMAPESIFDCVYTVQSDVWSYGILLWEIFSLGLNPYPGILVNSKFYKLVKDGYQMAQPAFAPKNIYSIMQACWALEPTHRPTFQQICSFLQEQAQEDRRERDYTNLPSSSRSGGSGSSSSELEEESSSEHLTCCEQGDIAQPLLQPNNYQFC
Description: Figure 2 CSF1R inhibition (IC50 curves) for the 7-azaindole 3c (red squares), pyrrolopyrimidine 1 (blue circles) and thienopyrimidine 2 (green triangles). The solid lines are regression curves generated from 20 data points each. The assay was performed at ThermoFisher (Invitrogen, San Diego, CA, USA) using the Z-lyte technology; ATP level was equal to KM.
(§1) CSF1R enzymatic inhibitory assay
(§2) The compounds were supplied in a 10 mM DMSO solution, and enzymatic CSF1R inhibition potency was determined by Invitrogen (ThermoFisher) using their Z’-LYTE® assay technology.[11] The assay is based on fluorescence resonance energy transfer (FRET). In the primary reaction, the kinase transfers the gamma-phosphate of ATP to a single tyrosine residue in a synthetic FRET-peptide. In the secondary reaction, a site-specific protease recognizes and cleaves non-phosphorylated FRET-peptides. Thus, phosphorylation of FRET-peptides suppresses cleavage by the development reagent. Cleavage disrupts FRET between the donor (i.e. coumarin) and acceptor (i.e., fluorescein) fluorophores on the FRET-peptide, whereas uncleaved, phosphorylated FRET-peptides maintain FRET. […]
(§3) The TR-FRET-based LANCE Ultra assay (Perkin Elmer) was used to determine IC50 values for various CSF1R inhibitors. Kinase activity and inhibition in this assay was measured as […]

CSF1R [2] = biological target: T1, CSF1R; assay: CSF1R enzymatic inhibitory assay, LANCE Ultra TR-FRET (Perkin Elmer); assay type: biochemical
Description: as §1, §2, §3
recommended by the manufacturer. […] Subsequently, phosphorylation or inhibition was detected by addition of specific europium (Eu)-labelled anti-phospho-antibodies (2 nM), which upon binding to the phospho-peptide give rise to a FRET signal. The FRET signal was recorded in a time-resolved manner in a Perkin Elmer EnVision reader. […] All assay data was analysed with the Quattro Workflow software package from Quattro Research.

CSF1R [3] = biological target: T1, CSF1R; design: method as in PMID 38141285; details: cited from earlier work
CSF1R [4] = biological target: T1, CSF1R; design: method as in Aarhus et al. [19]; details: LANCE Ultra assay; ATP level 25 μM; previously reported data ref Aarhus et al. [19]; cited from earlier work

melting point: 191 to 193 °C
SMILES: CN(Cc1ccccc1)c1ccnc2[nH]c(-c3ccccc3)cc12 [3a, N-Benzyl-N-methyl-2-phenyl-1H-pyrrolo-[2,3-b]pyridin-4-amine]

IC50 (CSF1R [1]): 3 nM and 3.1 nM
melting point: 200 to 201 °C
fold lower CSF1R activity compared to the corresponding pyrrolopyrimidine (reference inhibitor 1) (CSF1R [2]; CSF1R assay with higher ATP concentration (25 μM)): 20 fold
IC50 (CSF1R [2]; LANCE Ultra assay, ATP level 25 μM): 105 nM
SMILES: CN(Cc1ccccc1)c1ccnc2[nH]c(-c3ccc(CO)cc3)cc12 [3c, (4-(4-(Benzyl(methyl)amino)-1H-pyrrolo[2,3-b]pyridin-2-yl)phenyl)methanol]

melting point: 287 to 289 °C (dec.)
SMILES: COc1ccc(-c2[nH]c3nccc4c3c2Cc2ccccc2CN4C)cc1 [16b, 1-(4-Methoxyphenyl)-6-methyl-2,6,7,12-tetrahydro-2,3,6-triazabenzo[6,7]cycloocta[1,2,3-cd]indene]

SMILES: CN(Cc1ccccc1)c1ncnc2sc(-c3ccc(CO)cc3)cc12 [compound 2]
CSF1R inhibitory activity in enzymatic studies (in words) (CSF1R [3]): far less active
IC50 (CSF1R [4]): 450 nM
